The record followed here is ChEMBL document CHEMBL1909046, “DrugMatrix in vitro pharmacology data”.

One data set concerns the target T1, Substance-K receptor (Homo sapiens, UniProt P21452). Also: in other assays of this panel Not Active means under 50% inhibition at 10 µM.
T1 sequence (P21452 whole entry): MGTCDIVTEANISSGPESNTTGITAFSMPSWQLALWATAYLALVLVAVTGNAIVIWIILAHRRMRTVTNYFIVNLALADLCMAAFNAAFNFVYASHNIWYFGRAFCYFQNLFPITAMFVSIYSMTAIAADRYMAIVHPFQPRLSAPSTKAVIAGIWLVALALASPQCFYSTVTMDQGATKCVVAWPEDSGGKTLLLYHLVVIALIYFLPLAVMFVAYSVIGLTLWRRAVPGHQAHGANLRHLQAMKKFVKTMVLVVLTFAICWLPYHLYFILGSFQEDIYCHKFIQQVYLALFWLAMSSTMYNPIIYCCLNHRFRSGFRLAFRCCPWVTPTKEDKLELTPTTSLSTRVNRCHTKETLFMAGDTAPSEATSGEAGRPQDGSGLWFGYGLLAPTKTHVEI
Type of data set: cell membranes, CHO, Membrane. The following applies: cho.

Another data set has as its target Cytochrome P450 2E1 (Homo sapiens, UniProt P05181). As to conditions: bti-tn-5b1-4. Also: in other assays of this panel Not Active means under 50% inhibition at 10 µM.
The target of data set [1] is Epidermal growth factor receptor (Homo sapiens, UniProt P00533). Briefly: DRUGMATRIX: Protein Tyrosine Kinase, EGF Receptor enzyme inhibition (substrate: Poly(Glu:Tyr)). Type of data set: cell-based, Insect cells. As to conditions: insect cells; Not Active = under 50% inhibition at 10 µM.
Chain of Epidermal growth factor receptor (P00533 whole entry): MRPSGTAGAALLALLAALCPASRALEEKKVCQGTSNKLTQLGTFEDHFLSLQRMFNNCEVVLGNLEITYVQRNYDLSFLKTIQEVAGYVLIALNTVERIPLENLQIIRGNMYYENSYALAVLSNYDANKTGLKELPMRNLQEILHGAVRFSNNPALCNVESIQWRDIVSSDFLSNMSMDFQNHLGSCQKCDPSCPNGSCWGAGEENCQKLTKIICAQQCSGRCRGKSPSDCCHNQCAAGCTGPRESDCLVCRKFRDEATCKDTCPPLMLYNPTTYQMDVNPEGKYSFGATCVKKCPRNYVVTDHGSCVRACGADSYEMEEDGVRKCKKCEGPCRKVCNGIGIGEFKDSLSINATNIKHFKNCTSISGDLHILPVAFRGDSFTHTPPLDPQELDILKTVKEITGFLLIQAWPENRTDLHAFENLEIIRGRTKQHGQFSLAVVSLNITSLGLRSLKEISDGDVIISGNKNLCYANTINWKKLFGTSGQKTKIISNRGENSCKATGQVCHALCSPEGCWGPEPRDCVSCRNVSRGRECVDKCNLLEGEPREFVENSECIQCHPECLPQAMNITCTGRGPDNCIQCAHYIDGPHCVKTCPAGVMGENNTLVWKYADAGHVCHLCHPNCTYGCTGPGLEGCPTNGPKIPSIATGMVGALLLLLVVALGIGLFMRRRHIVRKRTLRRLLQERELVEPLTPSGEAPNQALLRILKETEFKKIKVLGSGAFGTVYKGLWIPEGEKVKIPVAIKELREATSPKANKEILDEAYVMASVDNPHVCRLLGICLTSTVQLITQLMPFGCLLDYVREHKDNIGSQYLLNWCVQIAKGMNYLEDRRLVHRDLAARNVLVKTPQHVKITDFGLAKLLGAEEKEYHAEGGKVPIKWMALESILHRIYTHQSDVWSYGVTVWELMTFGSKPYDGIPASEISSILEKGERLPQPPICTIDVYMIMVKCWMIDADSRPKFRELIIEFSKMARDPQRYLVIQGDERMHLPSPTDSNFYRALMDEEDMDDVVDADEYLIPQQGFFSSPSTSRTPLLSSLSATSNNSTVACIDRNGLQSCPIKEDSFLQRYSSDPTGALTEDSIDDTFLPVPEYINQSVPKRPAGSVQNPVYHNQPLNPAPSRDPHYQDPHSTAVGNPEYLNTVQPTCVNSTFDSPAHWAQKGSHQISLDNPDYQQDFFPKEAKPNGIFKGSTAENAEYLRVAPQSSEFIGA
Data set [2] deals with Protein kinase C alpha type (Homo sapiens, UniProt P17252). Type of data set: cell-based. As to conditions: sf9.
Data set [3] is described as follows: DRUGMATRIX: Nicotinic Acetylcholine radioligand binding (ligand: [125I] Epibatidine). The following applies: imr-32; Not Active = under 50% inhibition at 10 µM. Type of data set: cell membranes, Membrane.
Data set [4] deals with T2, Neuropeptide Y receptor type 2 (Homo sapiens, UniProt P49146).
T2 sequence (P49146 whole entry): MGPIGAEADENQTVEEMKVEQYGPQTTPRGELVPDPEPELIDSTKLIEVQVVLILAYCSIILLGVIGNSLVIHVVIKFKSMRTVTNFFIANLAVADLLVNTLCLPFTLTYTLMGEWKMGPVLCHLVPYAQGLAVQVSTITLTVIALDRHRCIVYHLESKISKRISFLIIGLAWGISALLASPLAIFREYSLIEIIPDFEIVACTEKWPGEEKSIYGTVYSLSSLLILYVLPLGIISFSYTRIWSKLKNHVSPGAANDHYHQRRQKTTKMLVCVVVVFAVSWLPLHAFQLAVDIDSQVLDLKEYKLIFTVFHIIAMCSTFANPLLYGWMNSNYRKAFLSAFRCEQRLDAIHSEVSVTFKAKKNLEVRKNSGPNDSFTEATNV
Type of data set: cell membranes, Membrane. The following applies: kan-ts.

Data set [5] is described as follows: DRUGMATRIX: Sigma2 radioligand binding (ligand: [3H] Ifenprodil). Type of data set: cell membranes, Rattus norvegicus, Wistar, Brain, Membrane. The following applies: Not Active = under 50% inhibition at 10 µM.

Chain of Cytochrome P450 2E1 (P05181 whole entry): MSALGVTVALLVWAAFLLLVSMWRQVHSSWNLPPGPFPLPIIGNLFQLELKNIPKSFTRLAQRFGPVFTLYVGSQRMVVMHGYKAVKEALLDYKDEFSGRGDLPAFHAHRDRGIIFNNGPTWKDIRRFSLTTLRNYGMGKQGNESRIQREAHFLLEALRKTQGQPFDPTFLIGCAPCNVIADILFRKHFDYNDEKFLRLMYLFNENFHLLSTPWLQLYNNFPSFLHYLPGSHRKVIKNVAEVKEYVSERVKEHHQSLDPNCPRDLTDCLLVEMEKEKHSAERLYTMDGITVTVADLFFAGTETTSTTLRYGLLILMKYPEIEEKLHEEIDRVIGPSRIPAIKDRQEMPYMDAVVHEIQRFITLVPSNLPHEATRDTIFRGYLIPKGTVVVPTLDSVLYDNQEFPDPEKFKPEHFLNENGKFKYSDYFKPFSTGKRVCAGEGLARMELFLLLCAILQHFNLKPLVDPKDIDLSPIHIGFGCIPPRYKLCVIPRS

As usually defined, the IC50 is the concentration at which inhibition is half-maximal. For orientation: Ki means the dissociation constant of the complex between target and ligand, obtained from inhibition or displacement. As to `O=S(=O)([O-])CCS.[Na+]` [MESNA], the IC50 entry (on Substance-K receptor; at Cytochrome P450 2E1; in data set [1]; in data set [2]; in data set [3]; in data set [4]) was “Not Active” in each case. Further, the IC50 entry in data set [5] is on record as “Not Active”. Also, the Ki result (on Cytochrome P450 2E1; in data set [3]; in data set [5]) was “Not Active” each time.

`C#C[C@]1(O)CC[C@H]2[C@@H]3CCc4cc(OC)ccc4[C@H]3CC[C@@]21C` [MESTRANOL]: the IC50 result (at Substance-K receptor; against Cytochrome P450 2E1; in data set [1]; in data set [2]; in data set [3]; in data set [4]) was “Not Active” throughout. In data set [5], the IC50 entry is reported as “Not Active”. In addition, the inhibition constant (Ki) result (on Cytochrome P450 2E1; in data set [3]; in data set [5]) was “Not Active” in each case.

Consider `CC(=O)Nc1cccc(O)c1` [METACETAMOL], for which the IC50 entry (against Substance-K receptor; against Cytochrome P450 2E1; in data set [1]; in data set [2]; in data set [3]; in data set [4]) was “Not Active” each time. Besides, the IC50 entry in data set [5] is recorded as “Not Active”. In addition, the Ki entry (at Cytochrome P450 2E1; in data set [3]; in data set [5]) was “Not Active” each time.

For the molecule `Cc1ncc([N+](=O)[O-])n1CCO` [METRONIDAZOLE], the IC50 result (against Substance-K receptor; against Cytochrome P450 2E1; in data set [1]; in data set [2]; in data set [3]; in data set [4]) was “Not Active” throughout. The IC50 result in data set [5] was “Not Active”. Besides, the Ki result (at Cytochrome P450 2E1; in data set [3]; in data set [5]) was “Not Active” throughout.

With `CC(C)(C(=O)c1cccnc1)c1cccnc1` [METYRAPONE], the IC50 result (at Substance-K receptor; against Cytochrome P450 2E1; in data set [1]; in data set [2]; in data set [3]; in data set [4]) was “Not Active” each time. For the same molecule, the IC50 result in data set [5] is reported as “Not Active”. The Ki result (at Cytochrome P450 2E1; in data set [3]; in data set [5]) was “Not Active” each time.

For the molecule `Oc1ccc(OCc2ccccc2)cc1` [MONOBENZONE], the IC50 result (on Substance-K receptor; against Cytochrome P450 2E1; in data set [1]; in data set [2]; in data set [3]; in data set [4]) was “Not Active” each time. In addition, the IC50 entry in data set [5] is reported as “Not Active”. Besides, the Ki result (at Cytochrome P450 2E1; in data set [3]; in data set [5]) was “Not Active” in each case.

`CC(C)(Oc1ccc(C2CCCc3ccccc32)cc1)C(=O)O` (stereo not given) [NAFENOPIN]: the IC50 entry (at Substance-K receptor; at Cytochrome P450 2E1; in data set [1]; in data set [2]; in data set [3]; in data set [4]) was “Not Active” each time. Moreover, the IC50 result in data set [5] was “Not Active”. Moreover, the Ki result (at Cytochrome P450 2E1; in data set [3]; in data set [5]) was “Not Active” in each case.

As to `CC(C)[C@H]1CC[C@H](C(=O)N[C@H](Cc2ccccc2)C(=O)O)CC1` [NATEGLINIDE], the IC50 entry (on Substance-K receptor; against Cytochrome P450 2E1; in data set [1]; in data set [2]; in data set [3]; in data set [4]) was “Not Active” throughout. Further, the IC50 result in data set [5] is “Not Active”. Also, the Ki entry (on Cytochrome P450 2E1; in data set [3]; in data set [5]) was “Not Active” throughout.

Consider `CCN[C@@H]1C[C@H](N)[C@@H](O[C@H]2OC(CN)=CC[C@H]2N)[C@H](O)[C@H]1O[C@H]1OC[C@](C)(O)[C@H](NC)[C@H]1O` [NETILMICIN], for which the IC50 result (against Substance-K receptor; on Cytochrome P450 2E1; in data set [1]; in data set [2]; in data set [3]; in data set [4]) was “Not Active” throughout. Further, in data set [5], the IC50 result was “Not Active”. For the same molecule, the Ki entry (at Cytochrome P450 2E1; in data set [3]; in data set [5]) was “Not Active” each time.

`COC(=O)C1=C(C)NC(C)=C(C(=O)OCC(C)C)C1c1ccccc1[N+](=O)[O-]` (stereo not given) [NISOLDIPINE]: the IC50 entry (on Substance-K receptor; on Cytochrome P450 2E1; in data set [1]; in data set [2]; in data set [3]; in data set [4]) was “Not Active” in each case. Besides, the IC50 result in data set [5] is on record as “Not Active”. Further, the Ki result (on Cytochrome P450 2E1; in data set [3]; in data set [5]) was “Not Active” throughout.

With `CCOC(=O)C1=C(C)NC(C)=C(C(=O)OC)C1c1cccc([N+](=O)[O-])c1` (stereo not given) [NITRENDIPINE], the IC50 entry (against Substance-K receptor; against Cytochrome P450 2E1; in data set [1]; in data set [2]; in data set [3]; in data set [4]) was “Not Active” each time. Moreover, the IC50 result in data set [5] is “Not Active”. Further, the Ki entry (at Cytochrome P450 2E1; in data set [3]; in data set [5]) was “Not Active” throughout.

`C#C[C@]1(OC(C)=O)CC[C@H]2[C@@H]3CCC4=CC(=O)CC[C@@H]4[C@H]3CC[C@@]21C` [NORETHINDRONE ACETATE]: the IC50 result (against Substance-K receptor; against Cytochrome P450 2E1; in data set [1]; in data set [2]; in data set [3]; in data set [4]) was “Not Active” in each case. Further, the IC50 result in data set [5] was “Not Active”. Further, the Ki result (at Cytochrome P450 2E1; in data set [3]; in data set [5]) was “Not Active” in each case.

With `COc1ccc2[nH]c([S+]([O-])Cc3ncc(C)c(OC)c3C)nc2c1` (stereo not given) [OMEPRAZOLE], the 50% inhibitory concentration (IC50) entry (against Substance-K receptor; against Cytochrome P450 2E1; in data set [1]; in data set [2]; in data set [3]; in data set [4]) was “Not Active” throughout. The IC50 entry in data set [5] is “Not Active”. The Ki entry (on Cytochrome P450 2E1; in data set [3]; in data set [5]) was “Not Active” throughout.

As to `Cc1nccn1CC1CCc2c(c3ccccc3n2C)C1=O` (stereo not given) [ONDANSETRON], the IC50 entry (against Substance-K receptor; against Cytochrome P450 2E1; in data set [1]; in data set [2]; in data set [3]; in data set [4]) was “Not Active” in each case. Further, in data set [5], the IC50 entry is “Not Active”. The Ki entry (on Cytochrome P450 2E1; in data set [3]; in data set [5]) was “Not Active” in each case.

With `CCCCOc1ccc(OCCCN2CCOCC2)cc1` [PRAMOXINE], the IC50 result (against Substance-K receptor; against Cytochrome P450 2E1; in data set [1]; in data set [2]; in data set [3]; in data set [4]) was “Not Active” in each case. In data set [5] (read-out: IC50), the IC50 worked out at 1030 nM. The results for the Ki entry (on Cytochrome P450 2E1; in data set [3]; in data set [5] (read-out: Ki)) were “Not Active”, “Not Active” and 633 nM, respectively.

For `O=C(C1CCCCC1)N1CC(=O)N2CCc3ccccc3C2C1` (stereo not given) [PRAZIQUANTEL], the IC50 entry (against Substance-K receptor; against Cytochrome P450 2E1; in data set [1]; in data set [2]; in data set [3]; in data set [4]) was “Not Active” each time. In data set [5], the IC50 result is reported as “Not Active”. The Ki result (on Cytochrome P450 2E1; in data set [3]; in data set [5]) was “Not Active” in each case.
